Reference: patent US12344603B2 (Genentech, Inc., priority 2020, dated 2025)
Structures can show the parent of a compound that is named as a salt.

Target: IRE1α (Homo sapiens (Human), UniProt O75460, D688N)
Assay: IRE1α TR-FRET competition binding assay (IRE1α HTRF)
Conditions: TR-FRET competition binding to kinase domain of IRE1α
In short: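 Competition of compounds against an Alexa fluor 647 ATP-site probe (2 nM final) for the His-tagged kinase domain (0.25 nM final), detected via 2 nM Eu anti-His antibody by TR-FRET, 665 and 615 nm emission. Protein–antibody premix 1 h, 4° C; reaction 1 h, room temperature, pH 7.5 HEPES buffer.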

IRE1α, sequence (O75460 547-977 D688N): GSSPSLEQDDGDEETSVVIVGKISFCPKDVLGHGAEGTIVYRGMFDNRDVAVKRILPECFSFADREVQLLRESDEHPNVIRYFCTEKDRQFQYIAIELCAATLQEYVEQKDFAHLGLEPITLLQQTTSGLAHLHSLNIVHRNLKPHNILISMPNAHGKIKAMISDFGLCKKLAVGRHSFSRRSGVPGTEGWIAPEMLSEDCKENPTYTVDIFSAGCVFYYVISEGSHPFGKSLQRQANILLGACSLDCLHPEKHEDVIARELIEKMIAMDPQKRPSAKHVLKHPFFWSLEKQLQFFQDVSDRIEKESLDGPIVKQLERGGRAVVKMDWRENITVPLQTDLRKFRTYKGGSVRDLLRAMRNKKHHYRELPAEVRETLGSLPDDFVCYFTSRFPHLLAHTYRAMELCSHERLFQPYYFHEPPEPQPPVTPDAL

Structure (SMILES)	IC50
CCCS(=O)(=O)Nc1ccc(-c2nc3cnc(N[C@@H]4CNC[C@H](CF)C4)nc3n(C(C)C)c2=O)cc1F [Compound 79, N-[2-Fluoro-4-[2-[[(3S,5R)-5-(fluoromethyl)-3-piperidyl]amino]-8-isopropyl-7-oxo-pteridin-6-yl]phenyl]propane-1-sulfonamide]	1.5 nM
CC(C)n1c(=O)c(-c2cc(F)c(NC(=O)C3CC3)c(F)c2F)cc2cnc(N[C@H]3CC[C@H](N(C)C)CC3)nc21 [Compound 37, N-(4-(2-(((1r,4r)-4-(Dimethylamino)cyclohexyl)amino)-8-isopropyl-7-oxo-7,8-dihydropyrido[2,3-d]pyrimidin-6-yl)-2,3,6-trifluorophenyl)cyclopropanecarboxamide]	1.4 nM
CC(C)n1c(=O)c(-c2ccc(NS(=O)(=O)CC3CCCC3(F)F)c(F)c2)nc2cnc(N[C@H]3CC[C@H](N(C)C)CC3)nc21 (mixture of isomers) [Example 264, 1-(2,2-Difluorocyclopentyl)-N-[4-[2-[[4-(dimethylamino)cyclohexyl]amino]-8-isopropyl-7-oxo-pteridin-6-yl]-2-fluoro-phenyl]methanesulfonamide]	0.1 nM
Cn1c(=O)c(-c2cccc3c(NS(=O)(=O)Cc4ccccc4)c(F)ccc23)cc2cnc(N[C@H]3CCCNC3)nc21 [Compound 5, (S)—N-(2-Fluoro-5-(8-methyl-7-oxo-2-(piperidin-3-ylamino)-7,8-dihydropyrido[2,3-d]pyrimidin-6-yl)naphthalen-1-yl)-1-phenylmethanesulfonamide]	0.28 nM
CC(C)n1c(=O)c(-c2ccc(NS(=O)(=O)c3ccccc3C#N)nc2)cc2cnc(N[C@H]3CC[C@H](N(C)CCF)CC3)nc21 [Compound 148, 2-Cyano-N-(5-(2-(((1r,4r)-4-((2-fluoroethyl)(methyl)amino)cyclohexyl)amino)-8-isopropyl-7-oxo-7,8-dihydropyrido[2,3-d]pyrimidin-6-yl)pyridin-2-yl)benzenesulfonamide]	0.23 nM
COc1nc(NS(=O)(=O)c2ccccc2Cl)ccc1-c1cc2cnc(N[C@H]3CC[C@H](N(C)C)CC3)nc2n(C(C)C)c1=O [Compound 131, 2-Chloro-N-(5-(2-(((1r,4r)-4-(dimethylamino)cyclohexyl)amino)-8-isopropyl-7-oxo-7,8-dihydropyrido[2,3-d]pyrimidin-6-yl)-6-methoxypyridin-2-yl)benzenesulfonamide]	0.21 nM
CC(C)n1c(=O)c(-c2ccc(NS(=O)(=O)CCC(F)(F)F)c(F)c2)nc2cnc(N[C@@H]3CNC[C@H](CF)C3)nc21 [Compound 76, 3,3,3-Trifluoro-N-[2-fluoro-4-[2-[[(3S,5R)-5-(fluoromethyl)-3-piperidyl]amino]-8-isopropyl-7-oxo-pteridin-6-yl]phenyl]propane-1-sulfonamide]	0.9 nM
CC(C)n1c(=O)c(-c2ccc(NS(=O)(=O)CC3(C(F)F)CCCC3)c(F)c2)nc2cnc(N[C@H]3CC[C@H](N(C)C)CC3)nc21 [Example 266, 1-[1-(Difluoromethyl)cyclopentyl]-N-[4-[2-[[4-(dimethylamino)cyclohexyl]amino]-8-isopropyl-7-oxo-pteridin-6-yl]-2-fluoro-phenyl]methanesulfonamide]	0.2 nM
CCC(F)(F)CS(=O)(=O)Nc1ccc(-c2nc3cnc(N[C@@H]4CNC[C@@H](F)C4)nc3n(C(C)C)c2=O)cc1F [Compound 83, 2,2-Difluoro-N-[2-fluoro-4-[2-[[(3S,5S)-5-fluoro-3-piperidyl]amino]-8-isopropyl-7-oxo-pteridin-6-yl]phenyl]butane-1-sulfonamide]	0.4 nM
CC(C)n1c(=O)c(-c2cc(F)c(NS(=O)(=O)Cc3ccccc3)c(F)c2F)cc2cnc(N[C@H]3CC[C@H](N)CC3)nc21 [Compound 56, N-(4-(2-(((1r,4r)-4-Aminocyclohexyl)amino)-8-isopropyl-7-oxo-7,8-dihydropyrido[2,3-d]pyrimidin-6-yl)-2,3,6-trifluorophenyl)-1-phenylmethanesulfonamide]	0.17 nM
CC(C)n1c(=O)c(-c2ccc(NS(=O)(=O)c3ccccc3Cl)c(F)c2)nc2cnc(N[C@H]3CC[C@H](N(C)C)CC3)nc21 [Compound 167, 2-Chloro-N-(4-(2-(((1r,4r)-4-(dimethylamino)cyclohexyl)amino)-8-isopropyl-7-oxo-7,8-dihydropteridin-6-yl)-2-fluorophenyl)benzenesulfonamide]	0.18 nM
CC(C)n1c(=O)c(-c2ccc(NS(=O)(=O)Cc3ccc(F)cc3)c(F)c2)nc2cnc(N[C@H]3CC[C@H](N(C)CCF)CC3)nc21 [Compound 176, N-(2-Fluoro-4-(2-(((1r,4r)-4-((2-fluoroethyl)(methyl)amino)cyclohexyl)amino)-8-isopropyl-7-oxo-7,8-dihydropteridin-6-yl)phenyl)-1-(4-fluorophenyl)methanesulfonamide]	0.14 nM
CC(C)n1c(=O)c(-c2cc(F)c(NS(=O)(=O)Cc3ccccc3)c(F)c2F)nc2cnc(N[C@@H]3CNC[C@@H](F)C3)nc21 [Compound 185, 1-Phenyl-N-(2,3,6-trifluoro-4-(2-(((3S,5S)-5-fluoropiperidin-3-yl)amino)-8-isopropyl-7-oxo-7,8-dihydropteridin-6-yl)phenyl)methanesulfonamide]	0.17 nM
CCC(F)(F)CS(=O)(=O)Nc1ccc(-c2nc3cnc(N[C@H]4CC[C@H](N(C)C)CC4)nc3n(C(C)C)c2=O)cc1F [Compound 165, N-(4-(2-(((1r,4r)-4-(Dimethylamino)cyclohexyl)amino)-8-isopropyl-7-oxo-7,8-dihydropteridin-6-yl)-2-fluorophenyl)-2,2-difluorobutane-1-sulfonamide hydrochloride]	0.1 nM
CC(C)n1c(=O)c(-c2ccc(NS(=O)(=O)Cc3ccc(F)cc3)c(F)c2)nc2cnc(N[C@H]3CC[C@H](N(C)C)CC3)nc21 [Compound 184, N-(4-(2-(((1r,4r)-4-(dimethylamino)cyclohexyl)amino)-8-isopropyl-7-oxo-7,8-dihydropteridin-6-yl)-2-fluorophenyl)-1-(4-fluorophenyl)methanesulfonamide]	0.25 nM
O=c1c(-c2ccc(NS(=O)(=O)Cc3ccccc3)c(F)c2F)cc2cnc(N[C@@H]3CNC[C@@H](F)C3)nc2n1C1CCCC1 [Compound 18, N-(4-(8-Cyclopentyl-2-(((3S,5S)-5-fluoropiperidin-3-yl)amino)-7-oxo-7,8-dihydropyrido[2,3-d]pyrimidin-6-yl)-2,3-difluorophenyl)-1-phenylmethanesulfonamide]	0.41 nM
Cc1nc(NS(=O)(=O)c2ccccc2C#N)ccc1-c1cc2cnc(N[C@H]3CC[C@H](N(C)C)CC3)nc2n(C(C)C)c1=O [Compound 136, 2-Cyano-N-(5-(2-(((1r,4r)-4-(dimethylamino)cyclohexyl)amino)-8-isopropyl-7-oxo-7,8-dihydropyrido[2,3-d]pyrimidin-6-yl)-6-methylpyridin-2-yl)benzenesulfonamide]	0.29 nM
CC(n1c(=O)c(-c2ccc(NS(=O)(=O)Cc3ccccc3)c(F)c2F)cc2cnc(N[C@@H]3CNC[C@@H](F)C3)nc21)C(F)(F)F (stereo partly drawn) [Compound 42, N-(2,3-difluoro-4-(2-(((3S,5S)-5-fluoropiperidin-3-yl)amino)-7-oxo-8-(1,1,1-trifluoropropan-2-yl)-7,8-dihydropyrido[2,3-d]pyrimidin-6-yl)phenyl)-1-phenylmethanesulfonamide trifluoroacetate salt]	3.6 nM
CC(C)n1c(=O)c(-c2ccc(NS(=O)(=O)Cc3ccccc3)c(F)c2)nc2cnc(N[C@@H]3CNC[C@@](C)(F)C3)nc21 [Compound 64, N-(2-Fluoro-4-(2-(((3S,5S)-5-fluoro-5-methylpiperidin-3-yl)amino)-8-isopropyl-7-oxo-7,8-dihydropteridin-6-yl)phenyl)-1-phenylmethanesulfonamide]	0.21 nM
CC1CC1C(=O)Nc1c(F)cc(-c2cc3cnc(N[C@H]4CC[C@H](N(C)C)CC4)nc3n(C(C)C)c2=O)c(F)c1F (stereo partly drawn) [Compound 58, (1S,2R)—N-(4-(2-(((1r,4r)-4-(dimethylamino)cyclohexyl)amino)-8-isopropyl-7-oxo-7,8-dihydropyrido[2,3-d]pyrimidin-6-yl)-2,3,6-trifluorophenyl)-2-methylcyclopropane-1-carboxamide]	5.7 nM
CC(C)n1c(=O)c(-c2ccc(NS(=O)(=O)CCC(F)(F)F)c(F)c2)cc2cnc(NC3CCC4(CC3)CNC4)nc21 [Example 220, N-(4-(2-((2-azaspiro[3.5]nonan-7-yl)amino)-8-isopropyl-7-oxo-7,8-dihydropyrido[2,3-d]pyrimidin-6-yl)-2-fluorophenyl)-3,3,3-trifluoropropane-1-sulfonamide]	5 nM
Cc1ccc(CS(=O)(=O)Nc2c(F)cc(-c3cc4cnc(N[C@@H]5CNC[C@@H](F)C5)nc4n(C(C)C)c3=O)c(F)c2F)c(C#N)c1 [Compound 107, 1-(2-Cyano-4-methylphenyl)-N-(2,3,6-trifluoro-4-(2-(((3S,5S)-5-fluoropiperidin-3-yl)amino)-8-isopropyl-7-oxo-7,8-dihydropyrido[2,3-d]pyrimidin-6-yl)phenyl)methanesulfonamide]	0.13 nM
CC(C)n1c(=O)c(-c2ccc(NS(=O)(=O)CCC(F)(F)F)c(F)c2)cc2cnc(N[C@H]3CC[C@H](N4CCOCC4)CC3)nc21 [Compound 213, 3,3,3-Trifluoro-N-(2-fluoro-4-(8-isopropyl-2-(((1,4-trans)-4-morpholinocyclohexyl)amino)-7-oxo-7,8-dihydropyrido[2,3-d]pyrimidin-6-yl)phenyl)propane-1-sulfonamide]	0.14 nM
CC(C)CC(=O)Nc1c(F)cc(-c2cc3cnc(N[C@H]4CC[C@H](N(C)C)CC4)nc3n(C(C)C)c2=O)c(F)c1F [Compound 59, N-(4-(2-(((1r,4r)-4-(Dimethylamino)cyclohexyl)amino)-8-isopropyl-7-oxo-7,8-dihydropyrido[2,3-d]pyrimidin-6-yl)-2,3,6-trifluorophenyl)-3-methylbutanamide]	3.2 nM
